Substitutions are numbered along the chain they refer to.
Experiments:
T878A-AR [1] = target: T1, T878A-AR (Homo sapiens, UniProt P10275, T878A); assay: cell-based
T1 sequence (P10275 1-920 T878A): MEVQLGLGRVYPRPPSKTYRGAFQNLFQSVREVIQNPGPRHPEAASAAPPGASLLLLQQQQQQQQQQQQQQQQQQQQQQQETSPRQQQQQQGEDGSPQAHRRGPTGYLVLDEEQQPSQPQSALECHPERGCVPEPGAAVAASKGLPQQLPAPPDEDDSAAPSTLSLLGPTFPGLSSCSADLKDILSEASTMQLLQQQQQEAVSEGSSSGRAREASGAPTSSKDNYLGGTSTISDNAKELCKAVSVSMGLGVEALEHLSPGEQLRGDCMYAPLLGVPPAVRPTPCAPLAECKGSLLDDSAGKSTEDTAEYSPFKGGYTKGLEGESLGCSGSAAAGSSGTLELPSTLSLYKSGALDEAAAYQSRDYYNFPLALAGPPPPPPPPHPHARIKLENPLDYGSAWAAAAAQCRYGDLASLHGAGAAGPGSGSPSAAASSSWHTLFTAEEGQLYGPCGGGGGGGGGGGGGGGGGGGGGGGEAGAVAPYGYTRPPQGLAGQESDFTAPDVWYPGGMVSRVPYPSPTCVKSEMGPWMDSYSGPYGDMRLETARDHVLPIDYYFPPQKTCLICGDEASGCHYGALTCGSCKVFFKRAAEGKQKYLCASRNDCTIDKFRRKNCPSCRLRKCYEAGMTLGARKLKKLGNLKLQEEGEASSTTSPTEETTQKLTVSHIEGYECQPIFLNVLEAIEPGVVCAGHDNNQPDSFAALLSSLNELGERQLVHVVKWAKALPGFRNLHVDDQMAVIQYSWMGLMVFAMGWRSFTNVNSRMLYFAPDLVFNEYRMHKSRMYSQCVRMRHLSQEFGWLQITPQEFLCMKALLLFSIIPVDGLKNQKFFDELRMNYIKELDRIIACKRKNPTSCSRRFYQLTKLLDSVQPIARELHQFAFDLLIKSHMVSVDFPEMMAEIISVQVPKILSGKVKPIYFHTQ

E894K-AR = target: T2, E894K-AR (Homo sapiens, UniProt P10275, E894K); assay: cell-based
T2 sequence (P10275 1-920 E894K): T1 sequence (P10275 1-920 T878A) with A878T, E894K

T878A-AR [2] = target: T1, T878A-AR; format: cell-based; design: Full-length human AR (WT-AR) was encoded on a pcDNA3.1 expression plasmid; expressed in transfected cells; host or cells: PC3 cells; conditions: AR mutant T878A; transfected PC3 cells; 0.1 nM R1881; drug 0 to 50 μM
Text: Full-length human AR (WT-AR) was encoded on a pcDNA3.1 expression plasmid (Life technologies). The LBD point mutations (single and multiple) were generated using the QuikChange II Site-Directed Mutagenesis Kit (Agilent Technologies) as per manufacturer’s instructions using WT-AR as the template. The mutagenic oligonucleotide primers were designed individually with the desired mutation in the middle of the primer with approximately 10 to 15 bases of correct sequence on both sides.
PC3 cells were seeded and transfected as described above. […] A non-stimulated/no R1881 control was used. After 24 h, cells were lysed and AR-dependent luciferase activity was quantified. Each concentration was assayed in quadruplicate n = 4, with a biological replicate of n = 3. Results were averaged and normalized by expressing them as a percentage of WT AR activity.

| Agonist response to treatment (T878A-AR [2]) | SMILES | EC50 (T878A-AR [1]) [nM] | EC50 (E894K-AR) [nM] |
| --- | --- | --- | --- |
| – | C[C@]12CCC(=O)C=C1CC[C@@H]1[C@@H]2[C@@H](O)C[C@@]2(C)[C@H]1CC[C@]2(O)C(=O)CO [hydrocortisone] | > 500 | > 500 |
| Partial | CC(C)(O)C(=O)Nc1ccc([N+](=O)[O-])c(C(F)(F)F)c1 [Hydroxyflutamide, hydroxyflutamide] | – | – |

Source: publication PMC4729137, “Functional analysis of androgen receptor mutations that confer anti-androgen resistance identified in circulating cell-free DNA from prostate cancer patients” (Genome Biology, 2016)
